Laboratory results: ChEMBL document CHEMBL5579805, “Synthesis, antibacterial activity, and 3D-QASR studies of matrine-indole derivatives as potential antibiotics” (2024)
Converted amounts (≈) assume the structure as drawn.

Columns and labels:
Format in all cases: functional
Pseudomonas aeruginosa = assay: Antibacterial activity against Pseudomonas aeruginosa by two-fold dilution method
Staphylococcus aureus = assay: Antibacterial activity against Staphylococcus aureus by two-fold dilution method; conditions: for MIC: Staphylococcus aureus
Escherichia coli = assay: Antibacterial activity against Escherichia coli by two-fold dilution method
Candida albicans = assay: […] activity against Candida albicans by two-fold dilution method; conditions: for MIC: Candida albicans
Cutibacterium acnes = assay: Antibacterial activity against Propionibacterium acnes by two-fold dilution method

MIC (Pseudomonas aeruginosa) [µg/mL]	MIC (Staphylococcus aureus) [µg/mL]	MIC (Escherichia coli) [µg/mL]	MIC (Candida albicans) [µg/mL]	MIC (Cutibacterium acnes) [µg/mL]	Structure (SMILES)	-logMIC (Staphylococcus aureus)	-logMIC (Candida albicans)
0.773 (≈ 1.38 µM)	1.66 (≈ 2.96 µM)	1.09 (≈ 1.93 µM)	8.08 (≈ 14.4 µM)	0.508 (≈ 0.904 µM)	COC(=O)CCC[C@@H]1[C@H]2CCCN3CCC[C@@H](CN1C(=O)c1cc4ccc(Cl)cc4n1Cc1ccc(C)cc1)[C@@H]23	0.221	-0.907
0.926 (≈ 1.53 µM)	0.178 (≈ 0.295 µM)	1.14 (≈ 1.88 µM)	7.9 (≈ 13.1 µM)	0.354 (≈ 0.586 µM)	COC(=O)CCC[C@@H]1[C@H]2CCCN3CCC[C@@H](CN1C(=O)c1cc4ccc(Cl)cc4n1Cc1ccccc1C(C)(C)C)[C@@H]23	0.75	-0.898
